Results published in patent US20080153794A1, “Medicaments and methods for wound healing” (RENOVO LIMITED, priority 2006, published 2008).

Legend:
[1] = test system: full thickness cutaneous excisional wounds (punch biopsies); assay: Human 3 mm punch biopsy wounds: re-epithelialisation; format: in vivo, humans; conditions: single 100 μl intradermal dose 10-30 minutes before wounding, day 3, 44 wounds
Method: Medicaments of the invention were prepared using the constituents described above. […] 44 healthy subjects were recruited to the study, of whom, 40 were healthy males (aged 18-75 years) and 4 were post-menopausal females (aged 53-69 years). The average age of subjects recruited to this study was 42 years. The post-menopausal status of female subjects was confirmed by quantification of serum levels of oestradiol and follicle stimulating hormone (FSH). Serum levels of oestradiol were required to be […], and follicle stimulating hormone levels >31 IU/L. Each subject had four wounds treated with active drug, one corresponding to each of four concentrations of the medicaments produced. The test medicaments were each administered intradermally as a single dose at a volume of 100 μl (sufficient to treat 1 cm^2 of skin) per wound site (the upper, inner aspect of each arm), 10-30 minutes before wounding. Subjects received 3 mm punch biopsies at the sites where the medicaments had been administered. After wounding, all sites received moist wound healing dressings (Standard Care). Biopsy sites were excised, using a 5 mm punch biopsy, three days after wounding. […] Percentage re-epithelialisation for the new epithelium was calculated as a proportion of the total wound diameter. The average percentage re-epithelialisation value was calculated from the 44 wounds of each treatment group.

[2] = test system: full thickness excisional wounds (punch biopsies); assay: Rat full thickness excisional wound model (study 3): re-epithelialisation at test concentrations, injection 20 minutes before wounding; format: in vivo, adult male Sprague-Dawley rats; conditions: intradermal 20 minutes before wounding, day 3, five rats
Text: Animals were killed, and their wounds harvested, three days after wounding. The wounds were excised and treated for histology. […] All histological assessments of early wound healing events were made using preserved 5 micron-thickness wound sections taken from the widest part of each excised biopsy site. Sections were stained with Haematoxylin and Eosin to aid visualisation of structural features, and measurements made using image analysis software. The distance traveled by the epithelium is derived from two histological measurements: the freehand total wound diameter and the freehand non-epithelialised wound diameter. The non-epithelialised diameter is subtracted from the total wound diameter, to determine the distance which the new epithelium has covered since the time of wounding. Percentage re-epithelialisation for the new epithelium was calculated as a proportion of the total wound diameter. The average percentage re-epithelialisation value was calculated from the wounds of the […] within each treatment group. […] 100 μl of the medicament to be tested was administered by intradermal injection at sites on the dorsal surface of experimental rats, 20 minutes prior to formation of a full thickness punch biopsy at the injected site. One injection and excisional wound was made per animal, and five adult male Sprague-Dawley rats used per treatment group. Acceleration of wound healing achieved using the test concentrations of the medicaments of the invention was investigated using the protocols set out under 1.1.4 above.

[3] = test system: partial thickness wounds; assay: Pig partial thickness wound healing model (model of split thickness skin graft donor sites); format: in vivo, male Large White pigs; conditions: 100 μl per cm^2 intradermal, five days after wounding, four pigs
Method: Test medicaments were administered by intradermal injection to provide 100 μl of medicament per cm^2 to sites on experimental pigs where wounds were to be formed. Thus a total volume of 625 μl of the test medicament was administered per wound site. After administration of the medicaments 2.5 cm by 2.5 cm (6.25 cm^2) partial thickness wounds were made using a 25 mm dermatome (Nouvag) at a depth setting of 0.55 mm. A single wound was treated per animal, and each treatment group comprised four male Large White pigs. Animals were killed, and their wounds harvested, five days after wounding. The wounds were excised and treated for histology. […] After being allowed fixed for 48 hours wounded tissue was bisected into four even sections. All bisected sections were processed to wax and embedded into individual wax blocks. Tissue was sectioned through to the end of the block where at every 250 μm, a single slide containing a 5 μm thick section was prepared. […] For each section, the freehand epithelialised and freehand non-epithelialised distances were measured using image analysis; freehand epithelialised distance as a proportion of the sum of the epithelialised and non-epithelialised distances was calculated to produce a percentage re-epithelialisation value. Average percentage re-epithelialisation values were calculated per wound and per treatment group.

[4] = 0.1 μg 17β-oestradiol/100 μl of medicament (0.0001% w/v)

C[C@]12CC[C@@H]3c4ccc(O)cc4CC[C@H]3[C@@H]1CC[C@@H]2O [17β-oestradiol]
acceleration of re-epithelialisation (in words) [1, 4]: particularly preferable ability to induce acceleration of re-epithelialisation
acceleration of re-epithelialisation (in words) ([1]; 0.2 μg 17β-oestradiol/100 μl of medicament (0.0002% w/v)): particularly preferable ability to induce acceleration of re-epithelialisation
re-epithelialisation ([2]; 0.001 μg 17β-oestradiol/100 μl of medicament (0.000001% w/v)): 23.02%
re-epithelialisation ([2]; 0.01 μg 17β-oestradiol/100 μl of medicament (0.00001% w/v)): 29.03%
re-epithelialisation [2, 4]: 29.95%
re-epithelialisation ([2]; 1 μg 17β-oestradiol/100 μl of medicament (0.001% w/v)): 14.63%
re-epithelialisation ([2]; 10 μg 17β-oestradiol/100 μl of medicament (0.01% w/v)): 10.30%
re-epithelialisation ([3]; 0.1 μg 17β-oestradiol/100 μl of medicament): 98.15%
re-epithelialisation ([3]; 0.2 μg 17β-oestradiol/100 μl of medicament): 98.56%
